Results as given in US11744791B2, “Cosmetic composition comprising amide-based compound” (Neopharm Co., Ltd., priority 2020, dated 2023).

What was measured:
PPAR-γ = assay: Analysis of expression level of PPAR-γ (Western blot) in sebocytes; format: cell-based; settings: human sebocytes, 24 hours
Protocol: An expression level of PPAR-γ was determined through Western blot in Examples and Comparative Examples of the present invention.
Specifically, human sebocytes were cultured in a 12-well plate containing a Dulbecco's modified eagle medium (DMEM)/F12 (1:1) medium supplemented with 10% fetal bovine serum (FBS) to attach 1.5×10^5 (1 mL/well) sebocytes to the 12-well plate. The sebocytes were cultured for 24 hours, and the medium was replaced with a serum-free medium. Then, an experimental group in which the cells were treated with each of the compounds of Examples or Comparative Examples was cultured for 24 hours, and the cells were then recovered. Thereafter, each of these samples was subjected to Western blot to analyze an expression level of PPAR-γ in the sebocytes. A sample (100 μM) of Example 1 or 2 or Comparative Example 1 or 2 including the amide-based compound having a structure shown in the following Table 1 was used as the sample. Also, a sample treated with 10 μM IGF-1 was used as the positive control, and the control in which the cells were not treated with the sample was used as the comparison group.

filaggrin = assay: Expression level of filaggrin gene in keratinocytes (Real-Time PCR); format: cell-based, human; settings: sample 100 μM, 24 hours
Protocol: (§1) To determine effects of the samples of Examples and Comparative Examples of the present invention on promotion of expression of moisturizing factors, expression levels of filaggrin and loricrin were measured.
(§2) Specifically, keratinocytes commercially available from Invitrogen Corp. were cultured for a predetermined period of time in an EpiLife medium (keratinocyte growth media:keratinocyte growth medium) supplemented with a human keratinocyte growth supplement (HKGS), subcultured three times, and then used. The keratinocytes which were subcultured 3 times were cultured to a confluence of 70 to 80% in a 6-well plate, and each of the wells was separately treated with each of the samples. Thereafter, the cells were cultured for a total of 24 hours. RNA of the keratinocytes was extracted from the cultured cells using an easy BLUE reagent, and cDNA was synthesized using a SuperScript reverse transcriptase III kit. A 7500 Fast Real-Time PCR for genetic comparison was performed using a 2×TaqMan universal PCR mixture (10 μL), a 20×TaqMan expression assay mix (1 μL), cDNA (50 ng), and primers (Filaggrin: Hs00856927_g1*, Loricrin: Hs01894962_s1*). Also, a sample treated with 10 μM IGF-1 was used as the positive control, and the control in which the cells were not treated with the sample was used as the comparison group.

loricrin = assay: Expression level of loricrin gene in keratinocytes (Real-Time PCR); format: cell-based, human; settings: sample 100 μM, 24 hours
Protocol: as §1, §2

CD44 = assay: Analysis of expression level of CD44 in adipose tissue-derived mesenchymal stem cells; format: cell-based, human; settings: hADSCs, sample 100 μM
Protocol: For flow cytometric analysis of the adipose tissue-derived stem cells of Examples and Comparative Examples of the present invention, an expression level of CD44 was measured. For this purpose, each of the samples was added to each medium. A sample (100 μM) of Example 1 or 2 or Comparative Example 1 or 2 including the amide-based compound having a structure shown in the following Table 1. Also, a sample treated with 10 μM IGF-1 was used as the positive control, and the control in which the cells were not treated with the sample was used as the comparison group.
Specifically, RNA was isolated from human adipose tissue-derived mesenchymal stem cells (hADSCs) according to the manufacturer's instructions using an easy BLUE reagent. The isolated RNA was dissolved in distilled water supplemented with diethyl procarbonate (DEPC), and the absorbance was measured at 260 nm, and a concentration of the RNA was quantified, and then used for experiments. Then, an expression level of CD44 in the adipose tissue-derived stem cells was analyzed.

Q: What does the source list for `CCCCCCCCCC(=O)NC(CO)CO` [Example 1, N-(2-hydroxy-1-(hydroxymethyl)ethyl)decanamide]?
A: effect of improving the expression of PPAR-γ (PPAR-γ; sample 100 μM): 128.4%; enhanced expression level of filaggrin, compared to the control (filaggrin): ≥ 300%; enhanced expression level of loricrin, compared to the control (loricrin): ≥ 400%

Q: Which “effect of improving the expression of PPAR-γ” value (PPAR-γ; sample 100 μM) does the source give for `CCCCCC(=O)NCC(O)CO` (stereo not shown) [Example 2, N-(2,3-dihydroxypropyl)hexanamide] here?
A: 140.8%

Q: Which “expression of PPAR-γ (in words)” value (PPAR-γ; IGF-1 10 μM, samples 100 μM) does the source give for “IGF-1: positive control, sample treated with 10 μM IGF-1 [reference compound]” here?
A: promoted

Q: How did the “inhibited the expression of PPAR-γ, compared to the control” value (PPAR-γ; sample 100 μM) turn out when `CCCCCCCC(=O)NCCO` [Comparative Example 2, N-(2-hydroxyethyl)octanamide, reference compound] was run?
A: 75.5%

Q: And the “expression level of CD44 (in words), compared to the control” value (CD44)?
A: lower expression level of CD44
